US20230095428A1, “[6R]-MTHF IN 5-FU BASED CHEMOTHERAPY OF BRAF- OR KRAS-MUTATED COLORECTAL CANCER” (Isofol Medical AB, priority 2021, published 2023)

Key:
[1] = in vitro; cited from earlier work
[2] = cited from earlier work; for pharmacokinetic comparison of leucovorin and levoleucovorin: in vivo
[3] = test system: solid colorectal cancer tumors (mCRC, incl. BRAF- or KRAS-mutated); assay: Clinical study ISO-CC-005 (Phase I/IIa), safety extension cohorts and follow-up study: tumour response by CT, ORR per RECIST 1.1; assay type: in vivo, human; conditions: 19 patients harbouring either mutated KRAS or BRAF; 16 weeks and beyond; 120 mg/m2 arfolitixorin
Text: As used herein, the term ORR shall refer to the Objective Response Rate, i.e. the proportion of patients with a reduction in tumor burden of a predefined amount. […] (Note: the appearance of one or more new lesions is also considered progression). […] As used herein, the term best ORR shall refer to the best overall response rate as per RECIST guideline version 1.1 for the treatment period, where applicable. Arfolitixorin has been in development for a number of years and has been studied in several clinical studies. […] 2019. The completion of the study was announced in January 2020. In total, 105 patients were included in the study. Applicant completed the dose definition part of ISO-CC-005 in March 2018, which evaluated the safety and efficacy of arfolitixorin in patients with mCRC. Shortly after, applicant started two additional treatment groups in 2018 to generate more safety and efficacy data, i.e. the safety extension Cohort #18 (Treatment Arm #4) and Cohort #19 (Treatment Arm #6). The aim was to evaluate as many patients as possible from the additional treatment groups after a treatment period of 16 weeks+. On 30 Sep. […] The goal with the Dose-finding Part of the Main Study was to establish the Arfolitixorin dose level assessed as having the most favourable profile, i.e. the selected phase 2 dose (SP2D). […] Response was measured in short- and long-term assessments. […]

For `Nc1nc(=O)c2c([nH]1)NC[C@H](CNc1ccc(C(=O)N[C@@H](CCC(=O)O)C(=O)O)cc1)N2C=O` [1-LV], the “conversion to the biologically available methyl-tetrahydrofolate form” value [1] is listed as “rapidly converted” and the “pharmacokinetic comparison of leucovorin and levoleucovorin” value [2] is listed as “pharmacokinetically identical”.
In the case of `Nc1nc2c(c(=O)[nH]1)N(C=O)[C@H](CNc1ccc(C(=O)N[C@@H](CCC(=O)O)C(=O)O)cc1)CN2` [d-LV], the excretion ([2]; kidneys) is listed as “slowly excreted by the kidneys”.
For `Nc1nc2c(c(=O)[nH]1)N(C=O)C(CNc1ccc(C(=O)N[C@@H](CCC(=O)O)C(=O)O)cc1)CN2` (some centres unmarked) [Leucovorin, 5-formyl tetrahydrofolic acid], the “pharmacokinetic comparison of leucovorin and levoleucovorin” value [2] is given as “pharmacokinetically identical”.
For `Nc1nc2c(c(=O)[nH]1)N1CN(c3ccc(C(=O)N[C@@H](CCC(=O)O)C(=O)O)cc3)C[C@H]1CN2` [[6R]-5,10-MTHF, [6R]-5,10-methylenetetrahydrofolate], the “best ORR” value [3] was > 50%.
